According to publication PMC9154192 (PLoS Biology, 2022):
Converted amounts (≈) assume the structure as drawn.

Experiments:
[1] = test system: clinically isolated MDR, XDR, and TDR M. tuberculosis strains; experiment: microbe, parasite or virus in culture; assay type: cell-based; details: Mycobacterium tuberculosis
M. abscessus = experiment: microbe, parasite or virus in culture; assay type: cell-based, Mycobacterium abscessus; details: Mycobacteroides abscessus
M. avium = experiment: microbe, parasite or virus in culture; assay type: cell-based; details: Mycobacterium avium
M. bolletii = experiment: microbe, parasite or virus in culture; assay type: cell-based, Mycobacterium bolletii; details: Mycobacteroides abscessus
M. conceptionense = experiment: microbe, parasite or virus in culture; assay type: cell-based, Mycobacterium conceptionense; details: Mycolicibacterium senegalense
M. fortuitum = experiment: microbe, parasite or virus in culture; assay type: cell-based, Mycobacterium fortuitum; details: Mycolicibacterium fortuitum
M. gilvum = experiment: microbe, parasite or virus in culture; assay type: cell-based, Mycobacterium gilvum; details: Mycolicibacterium gilvum
M. marinum = experiment: microbe, parasite or virus in culture; assay type: cell-based; details: Mycobacterium marinum
M. peregrinum = experiment: microbe, parasite or virus in culture; assay type: cell-based, Mycobacterium peregrinum; details: Mycolicibacterium peregrinum
M. phlei = experiment: microbe, parasite or virus in culture; assay type: cell-based, Mycobacterium phlei; details: Mycolicibacterium phlei
M. phocaicum = experiment: microbe, parasite or virus in culture; assay type: cell-based, Mycobacterium phocaicum; details: Mycolicibacterium phocaicum
M. smegmatis = experiment: microbe, parasite or virus in culture; assay type: cell-based, Mycobacterium smegmatis; details: Mycolicibacterium smegmatis
M. szulgai = experiment: microbe, parasite or virus in culture; assay type: cell-based; details: Mycobacterium szulgai
Acinetobacter baumannii = experiment: Broth dilution MIC (CLSI); assay type: cell-based; details: read-out: MIC
From the text: (§1) Bacteria (Acinetobacter baumannii NCCP 14782, Citrobacter freundii NCCP 14766, Enterobacter aerogenes NCCP 14761, Escherichia coli NCCP 14762, Escherichia coli O157 NCCP 14541, Klebsiella pneumoniae NCCP 14764, Proteus mirabilis NCCP 14763, Proteus vulgaris NCCP 14765, Pseudomonas aeruginosa NCCP 14781, Salmonella Enteritidis NCCP 14771, Salmonella Paratyphi A NCCP 14759, Salmonella Typhimurium NCCP 16207, Serratia marcescens NCCP 14770, Shigella boydii NCCP 14745, Shigella dysenteriae NCCP 14746, Shigella flexneri NCCP 14744, Shigella sonnei NCCP 14773, Bacillus subtilis NCCP 11101, Corynebacterium diphtheriae NCCP 10353, Staphylococcus aureus MSSA NCCP 14780, Staphylococcus aureus MRSA NCCP 14769, Staphylococcus epidermidis NCCP 14768, Streptococcus pneumoniae NCCP 14774) and fungi (Aspergillus fumigatus NCCP 22454, Candida albicans NCCP 32557, Cryptococcus neoformans NCCP 32559, Microsporum canis NCCP 22454, Rhizopus oryzae NCCP 22458, Saccharomyces cerevisiae NCCP 32558, Trichophyton rubrum NCCP 22456) strains were obtained from the National Culture Collection for Pathogens (NCCP) (Chungbuk, Korea). The MIC of each agent was determined following the Clinical and Laboratory Standards Institute (CLSI).[40]

Aspergillus fumigatus = experiment: Broth dilution MIC (CLSI); assay type: cell-based; details: read-out: MIC
From the text: as §1

Bacillus subtilis = experiment: Broth dilution MIC (CLSI); assay type: cell-based; details: read-out: MIC
From the text: as §1

Candida albicans = experiment: Broth dilution MIC (CLSI); assay type: cell-based; details: read-out: MIC
From the text: as §1

Citrobacter freundii = experiment: Broth dilution MIC (CLSI); assay type: cell-based; details: read-out: MIC
From the text: as §1

[2] = test system: Corynebacterium diphtheriae; experiment: Broth dilution MIC (CLSI); assay type: cell-based; details: read-out: MIC
From the text: as §1

Cryptococcus neoformans = experiment: Broth dilution MIC (CLSI); assay type: cell-based; details: read-out: MIC
From the text: as §1

Enterobacter aerogenes = experiment: Broth dilution MIC (CLSI); assay type: cell-based; details: Klebsiella aerogenes; Enterobacter aerogenes; read-out: MIC
From the text: as §1

Escherichia coli O157 = experiment: Broth dilution MIC (CLSI); assay type: cell-based; details: read-out: MIC
From the text: as §1

Escherichia coli = experiment: Broth dilution MIC (CLSI); assay type: cell-based; details: read-out: MIC
From the text: as §1

Klebsiella pneumoniae = experiment: Broth dilution MIC (CLSI); assay type: cell-based; details: read-out: MIC
From the text: as §1

Microsporum canis = experiment: Broth dilution MIC (CLSI); assay type: cell-based; details: read-out: MIC
From the text: as §1

Proteus mirabilis = experiment: Broth dilution MIC (CLSI); assay type: cell-based; details: read-out: MIC
From the text: as §1

Proteus vulgaris = experiment: Broth dilution MIC (CLSI); assay type: cell-based; details: read-out: MIC
From the text: as §1

Pseudomonas aeruginosa = experiment: Broth dilution MIC (CLSI); assay type: cell-based; details: read-out: MIC
From the text: as §1

Rhizopus oryzae = experiment: Broth dilution MIC (CLSI); assay type: cell-based; details: Rhizopus arrhizus; Rhizopus oryzae; read-out: MIC
From the text: as §1

Saccharomyces cerevisiae = experiment: Broth dilution MIC (CLSI); assay type: cell-based; details: read-out: MIC
From the text: as §1

Salmonella Enteritidis = experiment: Broth dilution MIC (CLSI); assay type: cell-based; details: Salmonella enterica; Salmonella Enteritidis; read-out: MIC
From the text: as §1

Salmonella Paratyphi A = experiment: Broth dilution MIC (CLSI); assay type: cell-based; details: Salmonella enterica; Salmonella Paratyphi A; read-out: MIC
From the text: as §1

Salmonella Typhimurium = experiment: Broth dilution MIC (CLSI); assay type: cell-based; details: Salmonella enterica; Salmonella Typhimurium; read-out: MIC
From the text: as §1

Serratia marcescens = experiment: Broth dilution MIC (CLSI); assay type: cell-based; details: read-out: MIC
From the text: as §1

Shigella boydii = experiment: Broth dilution MIC (CLSI); assay type: cell-based; details: read-out: MIC
From the text: as §1

Shigella dysenteriae = experiment: Broth dilution MIC (CLSI); assay type: cell-based; details: read-out: MIC
From the text: as §1

Shigella flexneri = experiment: Broth dilution MIC (CLSI); assay type: cell-based; details: read-out: MIC
From the text: as §1

Shigella sonnei = experiment: Broth dilution MIC (CLSI); assay type: cell-based; details: read-out: MIC
From the text: as §1

[3] = test system: Staphylococcus aureus, MRSA; experiment: Broth dilution MIC (CLSI); assay type: cell-based; details: read-out: MIC
From the text: as §1

[4] = test system: Staphylococcus aureus, MSSA; experiment: Broth dilution MIC (CLSI); assay type: cell-based; details: read-out: MIC
From the text: as §1

[5] = test system: Staphylococcus epidermidis; experiment: Broth dilution MIC (CLSI); assay type: cell-based; details: read-out: MIC
From the text: as §1

Streptococcus pneumoniae = experiment: Broth dilution MIC (CLSI); assay type: cell-based; details: read-out: MIC
From the text: as §1

Trichophyton rubrum = experiment: Broth dilution MIC (CLSI); assay type: cell-based; details: read-out: MIC
From the text: as §1

Molecule `CCCCOc1ccc2cc(CN3C(=O)CC[C@H]3C(=O)OC)c3cc(OC)c(OC)cc3c2c1` [PP2S, Methyl (S)-1-((3-butoxy-6,7-dimethoxyphenanthren-9-yl)methyl)-5-oxopyrrolidine-2-carboxylate] has an MIC ([1]; TDR-1) of 1.6 µg/mL (≈ 3.44 µM), an MIC ([1]; TDR-2) of 0.2 µg/mL (≈ 0.43 µM) and an MIC ([1]; TDR-3) of 1.6 µg/mL (≈ 3.44 µM). For the same molecule, the MIC (M. abscessus) was > 100 µg/mL, the MIC (M. avium) was > 100 µg/mL and the MIC (M. bolletii) was > 100 µg/mL. For the same molecule, the MIC (M. conceptionense) was > 100 µg/mL, the MIC (M. fortuitum) was > 100 µg/mL and the MIC (M. gilvum) was > 100 µg/mL. For the same molecule, the MIC (M. marinum) was > 100 µg/mL, the MIC (M. peregrinum) was > 100 µg/mL and the MIC (M. phlei) was > 100 µg/mL. For the same molecule, the MIC (M. phocaicum) was > 100 µg/mL, the MIC (M. smegmatis) was > 100 µg/mL and the MIC (M. szulgai) was > 100 µg/mL. For the same molecule, the MIC (Acinetobacter baumannii) was > 100 µg/mL, the MIC (Aspergillus fumigatus) was > 100 µg/mL and the MIC (Bacillus subtilis) was > 100 µg/mL. The MIC (Candida albicans) was > 100 µg/mL, the MIC (Citrobacter freundii) was > 100 µg/mL and the MIC [2] was > 100 µg/mL. The MIC (Cryptococcus neoformans) was > 100 µg/mL, the MIC (Enterobacter aerogenes) was > 100 µg/mL and the MIC (Escherichia coli O157) was > 100 µg/mL. For the same molecule, the MIC (Escherichia coli) was > 100 µg/mL, the MIC (Klebsiella pneumoniae) was > 100 µg/mL and the MIC (Microsporum canis) was > 100 µg/mL. For the same molecule, the MIC (Proteus mirabilis) was > 100 µg/mL, the MIC (Proteus vulgaris) was > 100 µg/mL and the MIC (Pseudomonas aeruginosa) was > 100 µg/mL. The MIC (Rhizopus oryzae) was > 100 µg/mL, the MIC (Saccharomyces cerevisiae) was > 100 µg/mL and the MIC (Salmonella Enteritidis) was > 100 µg/mL. The MIC (Salmonella Paratyphi A) was > 100 µg/mL, the MIC (Salmonella Typhimurium) was > 100 µg/mL and the MIC (Serratia marcescens) was > 100 µg/mL. The MIC (Shigella boydii) was > 100 µg/mL, the MIC (Shigella dysenteriae) was > 100 µg/mL and the MIC (Shigella flexneri) was > 100 µg/mL. For the same molecule, the MIC (Shigella sonnei) was > 100 µg/mL, the MIC [3] was > 100 µg/mL and the MIC [4] was > 100 µg/mL. For the same molecule, the MIC [5] was > 100 µg/mL, the MIC (Streptococcus pneumoniae) was > 100 µg/mL and the MIC (Trichophyton rubrum) was > 100 µg/mL.

With `COC(=O)[C@@H]1CCC(=O)N1Cc1cc2ccc(OC)cc2c2cc(OC)c(OC)cc12` [PP1S, (S)-N-[(2,3,6-Trimethoxy-10-phenanthryl)methyl]-pyroglutamic acid methyl ester] the MIC ([1]; TDR-1) was 3.3 µg/mL (≈ 7.79 µM), the MIC ([1]; TDR-2) was 0.8 µg/mL (≈ 1.89 µM) and the MIC ([1]; TDR-3) was 3.1 µg/mL (≈ 7.32 µM). For the same molecule, the MIC (M. abscessus) was > 100 µg/mL, the MIC (M. avium) was > 100 µg/mL and the MIC (M. bolletii) was > 100 µg/mL. The MIC (M. conceptionense) was > 100 µg/mL, the MIC (M. fortuitum) was > 100 µg/mL and the MIC (M. gilvum) was > 100 µg/mL. The MIC (M. marinum) was > 100 µg/mL, the MIC (M. peregrinum) was > 100 µg/mL and the MIC (M. phlei) was > 100 µg/mL. The MIC (M. phocaicum) was > 100 µg/mL, the MIC (M. smegmatis) was > 100 µg/mL and the MIC (M. szulgai) was > 100 µg/mL. The MIC (Acinetobacter baumannii) was > 100 µg/mL, the MIC (Aspergillus fumigatus) was > 100 µg/mL and the MIC (Bacillus subtilis) was > 100 µg/mL. For the same molecule, the MIC (Candida albicans) was > 100 µg/mL, the MIC (Citrobacter freundii) was > 100 µg/mL and the MIC [2] was > 100 µg/mL. The MIC (Cryptococcus neoformans) was > 100 µg/mL, the MIC (Enterobacter aerogenes) was > 100 µg/mL and the MIC (Escherichia coli O157) was > 100 µg/mL. The MIC (Escherichia coli) was > 100 µg/mL, the MIC (Klebsiella pneumoniae) was > 100 µg/mL and the MIC (Microsporum canis) was > 100 µg/mL. The MIC (Proteus mirabilis) was > 100 µg/mL, the MIC (Proteus vulgaris) was > 100 µg/mL and the MIC (Pseudomonas aeruginosa) was > 100 µg/mL. The MIC (Rhizopus oryzae) was > 100 µg/mL, the MIC (Saccharomyces cerevisiae) was > 100 µg/mL and the MIC (Salmonella Enteritidis) was > 100 µg/mL. The MIC (Salmonella Paratyphi A) was > 100 µg/mL, the MIC (Salmonella Typhimurium) was > 100 µg/mL and the MIC (Serratia marcescens) was > 100 µg/mL. The MIC (Shigella boydii) was > 100 µg/mL, the MIC (Shigella dysenteriae) was > 100 µg/mL and the MIC (Shigella flexneri) was > 100 µg/mL. For the same molecule, the MIC (Shigella sonnei) was > 100 µg/mL, the MIC [3] was > 100 µg/mL and the MIC [4] was > 100 µg/mL. For the same molecule, the MIC [5] was > 100 µg/mL, the MIC (Streptococcus pneumoniae) was > 100 µg/mL and the MIC (Trichophyton rubrum) was > 100 µg/mL.
